According to patent US6391921B1 (priority 2000, dated 2002):

How the values were obtained:
RBL-2H3 mast cells [1] = assay: Ionomycin or thapsigargin induced calcium mobilization in mast cells; type: cell-based, rat; conditions: 30 μM compound for 20 minutes, FIG. 2B
From the text: An alternative mechanism for the cells to maintain low cytosolic calcium levels is the activation of cell plasma membrane calcium ATPase or calcium pump (refs 32 and 33). Therefore, the effect of compound D-58 on ionophore and thapsigargin induced calcium mobilization also was studied. Ionomycin takes extracellular calcium inside the cells, and bypasses most of the signal transduction events, whereas thapsigargin inhibits endoplasmic reticulum calcium pump, and selectively depletes IP3-sensitive storage resulting in an increase in the cytosolic calcium levels (ref 33). In summary, IgE-sensitized RBL-2H3 cells were treated with 30 μM compound D-58 for 20 minutes and challenged with DNP-BSA (20 ng/ml). The cells were then stimulated with either ionomycin (1 μM), or thapsigargin (2 μM). The arrows indicate the time points at which the cells were exposed to the agents.
The fluorescent Ca^2+ indicator, fluo-3/AM (Molecular Probes) was used to detect Ca^2+ mobilizations in individual cells (ref 25). Briefly, the IgE sensitized monolayers of mast cells were incubated with 1 μM fluo-3/AM at 37° C. for 30 minutes. After incubation the cells were washed twice and 1 ml PIPES buffer was added to the wells. […] The image acquisition and fluorescence intensity analysis were controlled by the software MetaFluor (Universal Imaging Co.). The background fluorescence was subtracted from each image.

RBL-2H3 mast cells [2] = assay: IgE receptor/FcεRI-mediated mast cell LTC4 release; type: cell-based, rat; conditions: 1 hour prior to DNP-BSA challenge; FIG. 3B
Protocol: Monolayers of RBL-2H3 rat mast cells were sensitized with monoclonal anti-DNP IgE antibody (0.24 mg/ml) for 1 hour at 37° C. in a 48-well tissue culture plate. Unbound IgE was removed by washing the cells with phosphate buffered saline. After washing, PIPES-buffered saline containing 1 mM calcium chloride was added to the monolayers of the RBL-2H3 cells. The cells were challenged with 20 ng/ml DNP-BSA for 30 minutes at 37° C. The plate was centrifuged at 200 g for 10 minutes at 4° C. and supernatants were saved. […]
To study the effects of compound D-58, RBL-2H3 cells were incubated with compound D-58 at the indicated concentrations or vehicle for 1 hour prior to antigen challenge. Mast cell degranulation (β-hexosaminidase release, % of total) was assessed by measuring the β-hexosaminidase levels in cell free supernatants and Triton X-100 solubilized pellets using the formula: β-hexosaminidase release, % of total=100×(β-hexosaminidase level in supernatant/β-hexosaminidase level in supernatant+solubilized pellet). […]
In order to examine the effects of compound D-58 on IgE receptor/FcεRI-mediated mast cell activation and mediator release, RBL-2H3 mast cells were exposed to increasing concentrations of this ethanone or vehicle prior to challenge with antigen (DNP-BSA). […] Mast cell β-hexosaminidase release (FIG. 3A) and LTC4 release (FIG. 3B) were measured. […]

skh-1 mice = assay: UVB-irradiated skin edema (skinfold thickness); type: in vivo; conditions: 180 mJ/cm^2 UVB
Protocol: Mice (skh-1) were treated daily with 20 mg/kg i.p. bolus injections of compound D-58 from day −2 (i. e. 2 days prior to UVB exposure) until the termination of the experiment. Anesthetized mice received UVB radiations to a 2.0 cm^2 area on their dorsal surface. This area was painted either with the test compound (1.5 mg/cm^2) in drug receiving mice, or with vehicle in control mice 15 minutes before irradiation. The distance between UVB lamps and surface receiving irradiation was 20 cm. The final radiation dose received by skh-1 hairless mice was 180 mJ/cm^2 which is approximately four times higher than the minimal erythema dose (MED) (ref 29) in these mice. Skinfold thickness of the back of the mice was recorded prior to, and on each day after UVB exposure for five days with a digital thickness gauge (Mitutoyo Co., Plainfield, N.J.) which measures the skinfold thickness in a 0-10 mm range with an accuracy of 0.015 mm. […] For this purpose female, hairless, albino skh-1 mice were exposed to 180 mJ/cm^2 UVB light and their skinfold thickness, as a parameter of acute inflammation, was measured on days 1 through 5 following irradiation. […] The data points represent the mean±SEM values (n=5 mice). *p<0.05 and **p<0.001 compared to vehicle-treated UVB irradiated controls were determined by Student's t test.

SMILES: COc1ccc(CC(=O)c2c(O)cc(O)cc2O)cc1 [Compound D-58]
- calcium response induced by ionomycin (RBL-2H3 mast cells [1]; 1 μM ionomycin): did not inhibit
- calcium response induced by thapsigargin (RBL-2H3 mast cells [1]; 2 μM thapsigargin): did not inhibit
- IgE/antigen induced LTC4 release (RBL-2H3 mast cells [2]): inhibited
- development of skin edema after UVB exposure (skh-1 mice; 20 mg/kg i.p. daily from day −2 plus 1.5 mg/cm^2 topical, FIG. 7): effectively inhibited
- skinfold thickness (skh-1 mice; by 72 hours post irradiation): at baseline control levels
